Results taken from US20260158149A1, “GLYCOSYLATED PRODRUGS” (UNIVERSITEIT LEIDEN, priority 2021, published 2026).
Entries after “also recorded” stand apart in the source; their conditions may differ. Like-named read-outs stand apart in the source and are kept apart here.

Legend:
[1] = tested on: Gr target genes fkbp5, pck1 and nfkbiaa; assay: qPCR of Gr target genes fkbp5, pck1, nfkbiaa; format: in vivo, Zebrafish (Danio rerio)
Experimental: (§1) For experiments in zebrafish, gene expression was measured using 3 dpf embryos. Groups of 15 larvae were collected in TRIzol reagent (Invitrogen) and mRNA was isolated using the miRNeasy mini kit (Qiagen), according to the manufacturer's instructions. For experiments in HeLa cells, samples were collected from a single well from 6 well plates (80% confluent) in TRIzol reagent and mRNA was isolated using the RNeasy mini kit. Zebrafish and cells samples were treated with DNAse utilizing the DNA-Free™ kit (Ambion). The cDNA synthesis was performed using iScript cDNA synthesis kit (Bio-Rad) using 1 μg of RNA per sample. For qPCR, 10 μM of forward and 10 μM of reverse primer, 12.5 μL of iQ SYBR Green Supermix (Bio-Rad), and 2 μL of cDNA were added to the qPCR reaction mixture. […] The qPCR reactions were performed on a MyiQ-single-color real-time PCR detection system (Bio-Rad) with initial denaturation for 3 min at 95° C. and 40 cycles of 15 s at 95.5° C., 15 s at 60° C., and 30 s at 72° C. Cycle threshold values (Ct values, i.e. the cycle numbers at which a threshold value of the fluorescence intensity was reached) were determined for each sample. The gene expression level for each sample was normalized using the expression of ppial (peptidylprolyl isomerase Ab (cyclophilin A)) for zebrafish samples, and 18S rRNA for human cells. The fold change per sample (compared to the respective control group) was calculated using the ΔΔCt method.

[2] = Whole-body cortisol measurement using ELISA; details: 5 dpf larvae treated from 2 hpf, non-wounded
Experimental: (§4) Zebrafish embryos at 2 hpf received a chemical treatment, as indicated, with daily refreshment of the solutions, until 96 hpf. Then, the treatments were stopped and embryos were incubated in egg water until 5 dpf to avoid cross-reactivity with the compounds of the cortisol antibody used in the ELISA. Then, the treatments were stopped and replaced with egg water. At 5 dpf, the larvae were collected in an Eppendorf tube and 100 μL of ice-cold phosphate-buffered saline (PBS) was added. The larvae were homogenized using a BulletBlender® for 3 min at 8,000 rpm. Ethyl acetate was added to the homogenate and the supernatant was gathered and vaporized. A volume of 150 μl of 0.2% Bovine serum albumin (Sigma Aldrich) dissolved in phosphate-buffered saline (PBS) was added to the samples and frozen. Whole-body cortisol of the zebrafish larvae was determined by ELISA (Demeditec Diagnostics GmbH, Kiel-Wellsee, Germany), following the manufacturer's instructions. In each experiment, three biological replicates were used for each treatment group, and the colorimetric assay was performed using technical duplicates.

[3] = tested on: regenerated tail fin; assay: Regeneration of the tail fin after wounding; format: in vivo, Zebrafish (Danio rerio); details: 5 dpf larvae, wounded at 2 dpf
Experimental: (§2) When the regeneration of the tail fins after wounding or the larval body length was used as a readout, chemical treatments of the embryos were started at 2 hours post fertilization (hpf) and continued until 5 dpf. During this period, solutions were refreshed daily. At 5 dpf, larvae were imaged using a LeicaMZ16FA fluorescence stereomicroscope supported by LAS 3.7 software, and the length of the larvae was measured using ImageJ software (15 larvae per treatment group). For the regeneration experiments, tail fins were amputated at 2 dpf and larvae were imaged at 5 dpf (15 larvae per treatment group). The newly grown tissue can be distinguished from the old tissue, enabling precise measurement of the size of the newly grown tissue using ImageJ software.

[4] = tested on: il1b, il6, mmp9, mmp13, il8 mRNA; assay: qPCR of pro-inflammatory genes after tail wounding; format: in vivo, Zebrafish (Danio rerio)
Source text: (§3) For the tail fin amputation experiments, 3 days post fertilization (dpf) larvae from the Tg(mpx:GFP^i114/mpeg1:mCherry^umsF001) line were anesthetized in 0.02% buffered aminobenzoic acid ethyl ester (tricaine) in egg water and placed on a 2% agarose-coated petri dish. The tails were partially amputated with a 1 mm sapphire blade (World Precision Instruments) under a Leica M165C stereomicroscope (Leica Microsystems, Wetzlar, Germany). Chemical treatment (or 0.1% DMSO as vehicle treatment) was started at 2 h before the amputation (pretreatment) and was continued for 4 h after the tail fin amputation (20 larvae per group, unless indicated otherwise), at which time point the larvae were fixed in 4% paraformaldehyde (PFA) overnight at 4° C. and stored at 4° C. until further examination. In some experiments, a 24 h treatment with miglustat, ME656 or MZ31 was started at 2 dpf, and these treatments were continued during the pretreatment and treatment with the other chemicals. For imaging of larvae from the Tg(mpx:GFP^i114/mpeg1:mCherry^umsF001) line, a LeicaMZ16FA fluorescence stereomicroscope with LAS 3.7 software was used. Neutrophils were detected by GFP fluorescence and macrophages by mCherry fluorescence. The neutrophil numbers were determined by blinded manual counting in a pre-determined area. When larvae from gba2^−/− or gr^s357mutant lines were used, neutrophil labeling was performed with the TSA fluorescein detection kit (PerkinElmer) for specific staining of Myeloperoxidase (Mpx)-positive cells, following the manufacturer's instructions.
as §1

[5] = tested on: neutrophils migrated to the wounded area; assay: Tail fin amputation assay: neutrophil migration to the wounded area; format: in vivo, Zebrafish (Danio rerio); details: for reduction in neutrophil migration in the presence of MZ31: GBA2 inhibitor MZ31; for inhibition of neutrophil migration in Gr deficient larvae: gr mutant line (gr-/-); for migration of neutrophils towards the wounded area: wild type larvae, 4 h after tail wounding
Experimental: Zebrafish (Danio rerio) were maintained and handled according to the guidelines from the Zebrafish Model Organism Database (https://zfin.org/) and in compliance with the directives of the local animal welfare committee of Leiden University. To maintain circadian rhythmicity, adult fish were exposed to a 14 h light and 10 h dark cycle. Fertilization was performed by natural spawning at the beginning of the light period. Fertilized eggs were collected and raised at 28° C. in egg water (60 μg/ml Instant Ocean sea salts and 0.0025% methylene blue). The following zebrafish lines were used in this study: AB/TL wild type, the transgenic lines Tg(mpx:GFP^i114/mpeg1:mCherry^umsF001) (Bernut et al., (2014). Mycobacterium abscessus cording prevents phagocytosis and promotes abscess formation. Proc Natl Acad Sci USA 111, E943-952; Renshaw et al., (2006). A transgenic zebrafish model of neutrophilic inflammation. Blood 108, 3976-3978), and Tg(9xGCRE-HSV.UI123:EGFP)^ia20 (Benato et al., (2014). A living biosensor model to dynamically trace glucocorticoid transcriptional activity during development and adult life in zebrafish. Mol Cell Endocrinol 392, 60-72), and the mutant lines gba2^−/− (Lelieveld et al., (2019). Role of beta-glucosidase 2 in aberrant glycosphingolipid metabolism: model of glucocerebrosidase deficiency in zebrafish. J Lipid Res 60, 1851-1867) and gr^s357 (Ziv et al., (2013). An affective disorder in zebrafish with mutation of the glucocorticoid receptor. Mol Psychiatry 18, 681-691).
as §3

[6] = Larval body length; format: in vivo, Zebrafish (Danio rerio); details: 5 dpf, treatment from 2 hpf
Experimental: as §2

[7] = tested on: Gr; assay: Transactivation activity of Gr in Tg(9xGCRE-HSV.UI23:EGFP) reporter line; format: in vivo, Zebrafish (Danio rerio); details: 24 h treatment, 3 dpf larvae
Experimental: The Tg(9xGCRE-HSV.UI23:EGFP)^ia20 zebrafish reporter line expresses enhanced green fluorescent protein (EGFP) under the control of a promoter containing an array of nine GREs. To study the effect of chemical treatments on the transactivation activity of the Gr, 15 zebrafish embryos per group (2 dpf) were treated with the indicated compounds for 24 hours. The transactivation activity of Gr induced by the treatments was assessed using a LeicaMZ16FA fluorescence stereomicroscope supported by LAS 3.7 software. The integrated intensity of the EGFP signal in the larvae was determined using ImageJ software.

[8] = Whole-body glucose measurement in larvae; details: 5 dpf larvae treated from 2 hpf, non-wounded
Experimental: (§5) Zebrafish embryos at 2 hpf received a chemical treatment, as indicated, with daily refreshment of the solutions, until 5 dpf. At 5 dpf, the larvae were collected in an Eppendorf tube and 100 μL of ice-cold glucose buffer was added to each sample. The larvae were homogenized using a BulletBlender® for 3 min at 8,000 rpm. The homogenates were then centrifuged at 4° C. for 8 min at 11000 rpm and the supernatant was stored at −20° C. Whole-body glucose concentrations were determined using a Glucose Colorimetric Assay kit (Cayman Chemical, USA), according to the manufacturer's instructions. In each experiment, three biological replicates were used for each treatment group, and the colorimetric assay was performed using technical duplicates.

[9] = tested on: macrophages migrated to the wounded area; assay: Tail fin amputation assay: macrophage migration; format: in vivo, Zebrafish (Danio rerio); details: wild type larvae, 4 h after wounding
Experimental: Zebrafish (Danio rerio) were maintained and handled according to the guidelines from the Zebrafish Model Organism Database (https://zfin.org/) and in compliance with the directives of the local animal welfare committee of Leiden University. To maintain circadian rhythmicity, adult fish were exposed to a 14 h light and 10 h dark cycle. Fertilization was performed by natural spawning at the beginning of the light period. Fertilized eggs were collected and raised at 28° C. in egg water (60 μg/ml Instant Ocean sea salts and 0.0025% methylene blue). […]
For the tail fin amputation experiments, 3 days post fertilization (dpf) larvae from the Tg(mpx:GFP^i114/mpeg1:mCherry^umsF001) line were anesthetized in 0.02% buffered aminobenzoic acid ethyl ester (tricaine) in egg water and placed on a 2% agarose-coated petri dish. […] For imaging of larvae from the Tg(mpx:GFP^i114/mpeg1:mCherry^umsF001) line, a LeicaMZ16FA fluorescence stereomicroscope with LAS 3.7 software was used. Neutrophils were detected by GFP fluorescence and macrophages by mCherry fluorescence. The neutrophil numbers were determined by blinded manual counting in a pre-determined area. […]

[10] = zebrafish, in vivo
Experimental: as §4

[11] = zebrafish, in vivo; remark: listed apart in the source
Experimental: as §5

[12] = biological target: T1, human GR (Homo sapiens, UniProt P04150); assay: PolarScreen Glucocorticoid Receptor Competitor Assay; details: glucosylation or gentiobiosylation of Pdn
T1 sequence (P04150 1-777): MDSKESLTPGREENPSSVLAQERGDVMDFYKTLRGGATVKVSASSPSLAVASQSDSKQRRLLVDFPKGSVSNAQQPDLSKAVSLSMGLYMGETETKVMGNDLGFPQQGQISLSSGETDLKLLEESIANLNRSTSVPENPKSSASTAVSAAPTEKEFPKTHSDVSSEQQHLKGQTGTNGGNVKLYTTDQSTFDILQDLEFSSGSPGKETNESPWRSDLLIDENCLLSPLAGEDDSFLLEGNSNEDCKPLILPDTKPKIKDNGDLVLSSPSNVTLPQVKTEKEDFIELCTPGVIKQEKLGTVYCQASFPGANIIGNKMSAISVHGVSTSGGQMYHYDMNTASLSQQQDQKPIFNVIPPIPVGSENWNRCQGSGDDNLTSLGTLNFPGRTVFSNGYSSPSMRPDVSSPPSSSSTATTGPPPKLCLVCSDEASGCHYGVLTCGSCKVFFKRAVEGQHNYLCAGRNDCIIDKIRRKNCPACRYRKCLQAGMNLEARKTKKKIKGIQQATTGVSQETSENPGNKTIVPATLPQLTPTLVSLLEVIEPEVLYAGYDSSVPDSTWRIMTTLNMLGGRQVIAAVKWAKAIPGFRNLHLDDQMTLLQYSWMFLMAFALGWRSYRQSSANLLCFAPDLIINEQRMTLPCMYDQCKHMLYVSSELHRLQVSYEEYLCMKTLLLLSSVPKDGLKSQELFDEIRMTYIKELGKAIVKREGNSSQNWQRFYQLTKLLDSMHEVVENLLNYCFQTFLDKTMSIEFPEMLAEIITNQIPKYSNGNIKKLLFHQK

SMILES	expression of Gr target genes fkbp5, pck1 and nfkbiaa [1]	whole body cortisol level [2]	tissue regeneration (length of regenerated tail fin) [3]	wounding-induced increase in expression of il1b, il6 and mmp9 [4]	reduction in neutrophil migration in the presence of MZ31 [5]	inhibition of neutrophil migration in Gr deficient larvae [5]	reduction in neutrophil migration in the presence of miglustat ([5]; non-specific GBA inhibitor miglustat)	larval length [6]	transactivation activity of Gr (GFP signal in GRE:GFP reporter fish line) [7]	whole body glucose level [8]	migration of macrophages [9]	migration of neutrophils towards the wounded area [5]	wounding-induced increase in expression of il1b, il6, mmp9 and mmp13 [4]	whole body cortisol level [10]	whole body cortisol level under wounding conditions with MZ31 [10]	whole body glucose level [11]	whole body glucose level under wounding conditions with MZ31 [11]	decrease in the binding affinity relative to Pdn [12]	expression of the pro-inflammatory genes il1b, il6 and il8 [4]
CC(C)=CCCC(C)(O)[C@H]1CC[C@]2(C)[C@@H]1[C@H](O)C[C@@H]1[C@@]3(C)CC[C@H](O)C(C)(C)[C@@H]3CC[C@]12C (stereo in doubt) [PPD, Protopanaxadiol]	did not increase the expression	did decrease the cortisol concentration	did decrease	strongly suppressed	did not affect the action of PPD	the inhibition of neutrophil migration was abolished	did not affect the action of PPD	did decrease	did not cause an increase in the fluorescence intensity	did not affect the glucose level									
C[C@H]1C[C@H]2[C@@H]3CCC4=CC(=O)C=C[C@]4(C)[C@@]3(Cl)[C@@H](O)C[C@]2(C)[C@@]1(O)C(=O)CO [Bec, beclomethasone]		decrease in cortisol level; also recorded: decreased the cortisol level; also recorded: significantly larger decrease	decrease	strongly suppressed		absent			large increase in GFP signal	increased the glucose concentration	leaves the migration of macrophages unaffected	decreases the migration of neutrophils; also recorded: inhibits neutrophil migration; also recorded: inhibited the neutrophil migration							
C[C@@H]1C[C@H]2[C@@H]3CCC4=CC(=O)C=C[C@]4(C)[C@@]3(F)[C@@H](O)C[C@]2(C)[C@@]1(O)C(=O)CO[C@@H]1O[C@H](C(=O)O)[C@@H](O)[C@H](O)[C@H]1O [GDex, dexamethasone-glucuronide]	did not induce the transactivation activity of the Gr	very minor decrease in cortisol level; also recorded: only slightly reduced the cortisol concentrations			independent of GBA2 activity	absent			did not induce the transactivation activity of the Gr	did not increase the glucose level	without any effect on macrophage migration	inhibits neutrophil migration; also recorded: inhibited the neutrophil migration	strongly reduced						
C[C@]12C=CC(=O)C=C1CC[C@@H]1[C@@H]2[C@@H](O)C[C@@]2(C)[C@H]1CC[C@]2(O)C(=O)CO[C@@H]1O[C@H](CO)[C@@H](O)[C@H](O)[C@H]1O [GPdn, 21-O-Glucose-Prednisolone]	lack of effect				independent of GBA2 activity				neither GPdn nor GbPdn induced the transactivation activity of the Gr			inhibited the neutrophil migration		only slightly reduced the cortisol concentrations	reduced upon treatment with MZ31	did not increase the glucose level	reduced upon treatment with MZ31	~30 fold	these effects were similar to those observed upon Pdn and GPdn treatment
